Several values for one entry are separate records, joined by “and”; a condition that tells them apart may be missing. Equal values may be shown once.
Legend:
Assay type in all cases: cell-based, human
[1] = system: PBMC (Peripheral blood mononuclear cells); assay: Proliferation assay (3H-thymidine) of PBMC
Description: (§1) PBMCs (Peripheral blood mononuclear cells) from heparinized venous blood of healthy volunteers were isolated by Ficoll-gradient centrifugation. MNC (Mononuclear cells) were washed three times in PBS and resuspended in RPMI-1640 medium supplemented with 100 U/mL penicillin, 100 μg/mL streptomycin, and 10% heat-inactivated FBS (Fetal Bovine Serum). Cells were seeded at 100.000 cells in 96-wel plate in a total volume of 200 μL/well.
(§2) PBMC, at 100.000 cells/200 μL, were plated in 96-well microtiter plates and stimulated or not with 10 μg/mL phytohemagglutinin (PHA). Effects of hyaluronic acid “HA” (200 μg/mL) and p-aminoclonidine “A2A” (5 μM) were tested on PBMC.
MSC (Mesenchymal stromal cells) were derived from 20 to 60 mL of heparinized bone marrow (BM) obtained from the iliac crest of healthy volunteers. BM was mixed with phosphate-buffered saline (PBS, 2v:v) and layered on density gradient Ficoll solution. After centrifugation, mononuclear cells were harvested from the interface and washed twice in PBS. Cells were resuspended in standard MEM medium supplemented with 15% FBS. The cells were plated at 2×10^6 cells/75 cm2 flasks and maintained in a 37° C. humidified atmosphere containing 5% CO2. Cells were allowed to attach for 24 hours prior an initial medium change. Cells were detached at day 10 using trypsin-EDTA solution for 1-5 min at 37° C. Then, cells were irradiated (10 minutes at 2200Ci) before seeding in 96-well for proliferative assays at 12.500 cells/well to obtain a ratio 1:8 (MSC:PBMC).
The culture was incubated with 1 μCi/mL 3H-thymidine for 24 hours before end of culture to measure the proliferation. Then, cells were washed twice with ice-cold PBS and twice with ice-cold 5% trichloroacetic acid (TCA). Finally, cells were lysed with 0.1N NaOH-0.1% Triton-X100. Supernatants were collected and analyzed on a beta-counter in presence of scintillation liquid. Results were done in cpm (“count per minute”=disintegration number of radioactive element observed in series of successive counts of one minute). IL-1β (beta) detection (By ELISA). Levels of IL-1β from PBMC or culture supernatants were measured by Quantikine ELISA kit (R&D Systems Inc, Mineapolis, USA). The minimum detectable concentration of IL-1β was estimated at 1.0 pg/mL.
The release of IL-1 beta by PBMC and the proliferation of PBMC, induced by PHA stimulation, were set as controls, and compared with the measures for PBMC treated with HA and/or A2A.

IL-1β = IL-1β detection (ELISA) in PBMC culture supernatants
Description: as §1, §2
MSC (Mesenchymal stromal cells) were derived from 20 to 60 mL of heparinized bone marrow (BM) obtained from the iliac crest of healthy volunteers. BM was mixed with phosphate-buffered saline (PBS, 2v:v) and layered on density gradient Ficoll solution. After centrifugation, mononuclear cells were harvested from the interface and washed twice in PBS. […]
The culture was incubated with 1 μCi/mL 3H-thymidine for 24 hours before end of culture to measure the proliferation. […] Supernatants were collected and analyzed on a beta-counter in presence of scintillation liquid. […] Levels of IL-1β from PBMC or culture supernatants were measured by Quantikine ELISA kit (R&D Systems Inc, Mineapolis, USA). […]

MSCs = MSCs cultured in chondrogenic medium, pellets stained with Alcian blue / Nuclear fast red; settings: HA 200 μg/ml, A2A 5 μMol
Description: MSCs were culture in chondrogenic medium for 7, 14 and 21 days and 4 conditions were tested • control • A2A: 5 μMol aminoclonidine • HA: 200 μg/ml of hyaluronic acid • HA+A2A: 200 μg/ml of hyaluronic acid and 5 μMol aminoclonidine
At day 14 and 21, pellets were fixed in 10% buffered formalin for 6 hours, and washed twice in PBS. Pellets were then embedded in OCT (Sakura Finetek, Belgium). Sections were cut at a thickness of 5 μm and were stained with Alcian blue, before counterstained with Nuclear fast red (Klinipath, Belgium)
GAGs will be stained blue, while Nuclear fast red will counterstain cells nuclei in pink or red, and cytoplasm in pale pink. In brief, the procedure is 1) Stain in alcian blue solution for 30 minutes; 3) Wash in running tap water for 2 minutes; 4) Rinse in distilled water; 5) Counterstain in nuclear fast red solution for 5 minutes; 6) Wash in running tap water for 1 minute; 7) Dehydrate through 95% alcohol, and 2 changes of absolute alcohol, 3 minutes each; 8) clear in Ultraclear, a xylene substitute (Klinipath, Belgium); 9) Mount with Ultrakit mounting medium (Klinipahth, Belgium). Toluidine blue stains proteoglycan in red-purple (metachromatic staining) and the nucleus in blue (orthochromatic staining). Metachromasia, tissue elements staining a different color from the dye solution, is due to the pH, dye concentration and temperature of the basic dye. […]

[2] = basal (unstimulated) conditions

Nc1cc(Cl)c(N=C2NCCN2)c(Cl)c1 [A2A, p-aminoclonidine]
Proliferation ([1]; PBMC stimulated with 10 μg/mL PHA, HA 200 μg/mL, A2A 5 μM, MSC:PBMC 1:8): 16212 cpm | effect on PBMC proliferation ([1]; PHA stimulated PBMC): not able to inhibit | Proliferation ([1]; PHA stimulated PBMC, PBMC + PHA set at 100): 101% and 100% | effect on PBMC proliferation [1, 2]: no effect | Proliferation ([1]; unstimulated PBMC, HA 200 μg/mL, A2A 5 μM, MSC:PBMC 1:8): 786 cpm | Proliferation ([1]; unstimulated PBMC, PBMC + PHA set at 100): 4.9% | effect on IL-1beta secretion (IL-1β; PHA stimulated PBMC): totally suppressed | effect on IL-1beta secretion (IL-1β; [2]): no effect | matrix (mucopolysaccharides and glycosaminoglycans) content / production, Alcian blue staining (MSCs): almost absent

Reference: US9415036B2, “Pharmaceutical composition for use in the treatment or prevention of osteoarticular diseases” (BONE THERAPEUTICS, priority 2008, dated 2016)
